The values that follow come from patent US20130158075A1, “HETEROCYCLIC COMPOUNDS AS DGAT1 INHIBITORS” (PIRAMAL ENTERPRISES LIMITED, priority 2010, published 2013).

The inhibition is the percentage by which the read-out fell short of the control.

One assay has as its target T1, hDGAT1 (Homo sapiens, UniProt O75907).
T1 construct: made in house; host or cells: Sf9 insect cells (baculovirus); microsomal fraction
T1 sequence (O75907 1-488): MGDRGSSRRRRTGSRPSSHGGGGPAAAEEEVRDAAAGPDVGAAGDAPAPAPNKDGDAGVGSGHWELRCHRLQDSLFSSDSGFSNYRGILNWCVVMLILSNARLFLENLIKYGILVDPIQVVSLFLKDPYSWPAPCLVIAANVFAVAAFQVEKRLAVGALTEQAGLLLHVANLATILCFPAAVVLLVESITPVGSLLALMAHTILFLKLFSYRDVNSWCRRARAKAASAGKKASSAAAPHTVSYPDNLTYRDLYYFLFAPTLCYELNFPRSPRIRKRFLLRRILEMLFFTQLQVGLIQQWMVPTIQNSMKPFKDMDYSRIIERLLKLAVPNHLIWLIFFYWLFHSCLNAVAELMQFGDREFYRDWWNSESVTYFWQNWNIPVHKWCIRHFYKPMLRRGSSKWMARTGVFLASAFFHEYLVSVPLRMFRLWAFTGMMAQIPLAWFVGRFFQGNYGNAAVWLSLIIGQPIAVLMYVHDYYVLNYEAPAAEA
As to the kind of experiment: In-vitro DGAT1 assay with hDGAT1 microsomes from Sf9 cells (14C oleoyl CoA, scintillation counting). Type of assay: biochemical. Particulars: at 1 μM. The method, boiled down: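 Radiolabelled triglyceride formation was measured: heptane extracts were scintillation-counted after a 10-min, 37 °C reaction stopped with alkaline ethanol. Enzyme was human DGAT1 in baculovirus-infected Sf9 microsomal membranes; substrates were 14C oleoyl-CoA plus dioleoylglycerol. Runs were duplicated, and inhibition (%) was related to nM compound concentration.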
With `CC(C)(CCc1ncc(-c2ccc(NC(=O)Nc3cc(F)c(F)c(F)c3)cc2)s1)C(=O)[O-].[Na+]` [Example 255A, Sodium salt of 2,2-dimethyl-4-(5-(4-(3-(3,4,5-trifluorophenyl)ureido)phenyl)thiazol-2-yl)butanoate], the “Percentage inhibition of hDGAT1” value is “++ (>50 % Inhibition)”.

On to `O=C(O)CCCc1nnc(-c2ccc(NC(=O)c3ccc(-c4ccccc4)cc3)cc2)s1` [Example 290, 4-(5-(4-([1,1′-Biphenyl]-4-ylcarboxamido)phenyl)-1,3,4-thiadiazol-2-yl)butanoic acid], for which the “Percentage inhibition of hDGAT1” value is “+ (20-50% Inhibition)”.

The same assay, now with this note: read-out: Percentage inhibition of hDGAT1.
With `CC(C)(CCc1ncc(-c2ccc(NC(=O)Nc3ccc4c(c3)OCCO4)cc2)s1)C(=O)O` [Example 245, 4-(5-(4-(3-(2,3-Dihydrobenzo[b][1,4]dioxin-6-yl)ureido)phenyl)thiazol-2-yl)-2,2-dimethylbutanoic acid], the inhibition at 1 µM is above 50%.

For `CC(C)(CCc1ncc(-c2ccc(NC(=O)Nc3nnn[nH]3)cc2)s1)C(=O)O` [Example 247, 4-(5-(4-(3-(1H-tetrazol-5-yl)ureido)phenyl)thiazol-2-yl)-2,2-dimethylbutanoic acid], the inhibition at 1 µM is 20 to 50%.

For the compound `COCCNC(=O)Nc1ccc(-c2cnc(CCC(C)(C)C(=O)O)s2)cc1` [Example 249, 4-(5-(4-(3-(2-methoxyethyl)ureido)phenyl)thiazol-2-yl)-2,2-dimethylbutanoic acid], the inhibition at 1 µM lay in the range of 20 to 50%.

Consider `CC(C)(CCc1ncc(-c2ccc(NC(=O)NC3Cc4ccccc4C3)cc2)s1)C(=O)O` [Example 251, 4-(5-(4-(3-(2,3-Dihydro-1H-inden-2-yl)ureido)phenyl)thiazol-2-yl)-2,2-dimethyl butanoic acid], for which the inhibition at 1 µM is above 50%.

For the compound `CC(C)(CCc1ncc(-c2ccc(NC(=O)Nc3cc(F)c(F)c(F)c3)cc2)s1)C(=O)O` [Example 255, 2,2-dimethyl-4-(5-(4-(3-(3,4,5-trifluorophenyl)ureido)phenyl)thiazol-2-yl)butanoic acid], the inhibition at 1 µM is above 50%.

With `CC(C)(CCc1ncc(-c2ccc(NC(=O)NCCN3CCCCC3)cc2)s1)C(=O)O` [Example 257, 2,2-Dimethyl-4-(5-(4-(3-(2-(piperidin-1-yl)ethyl)ureido)phenyl)thiazol-2-yl)butanoic acid], the inhibition at 1 µM lay within 20 to 50%.

On to `CC(C)(CCc1ncc(-c2ccc(NC(=O)NCc3ccccc3)cc2)s1)C(=O)O` [Example 259, 4-(5-(4-(3-Benzylureido)phenyl)thiazol-2-yl)-2,2-dimethylbutanoic acid], for which the inhibition at 1 µM is above 50%.

Turning to `CC(C)(CCc1ncc(-c2ccc(NC(=O)N3CCC(F)(F)CC3)cc2)s1)C(=O)O` [Example 261, 4-(5-(4-(4,4-Difluoropiperidine-1-carboxamido)phenyl)thiazol-2-yl)-2,2-dimethyl butanoic acid], the inhibition at 1 µM was 20 to 50%.

As for `CC(C)(CCc1ncc(-c2ccc(NC(=O)N3CCC(c4ccccc4)CC3)cc2)s1)C(=O)O` [Example 263, 2,2-Dimethyl-4-(5-(4-(4-phenylpiperidine-1-carboxamido)phenyl)thiazol-2-yl)butanoic acid], the inhibition at 1 µM is above 50%.

For `CC(C)(CCc1ncc(-c2ccc(NC(=O)NCc3ccc(C#N)cc3)cc2)s1)C(=O)O` [Example 265, 4-(5-(4-(3-(4-Cyanobenzyl)ureido)phenyl)thiazol-2-yl)-2,2-dimethylbutanoic acid], the inhibition at 1 µM was in the range of 20 to 50%.

Regarding `O=C(O)CCCc1nnc(-c2ccc(NC(=O)Nc3cccc(C(F)(F)F)c3)cc2)s1` [Example 278, 4-(5-(4-(3-(3-(Trifluoromethyl)phenyl)ureido)phenyl)-1,3,4-thiadiazol-2-yl)butanoic acid], the inhibition at 1 µM was above 50%.

Take `O=C(O)CCCc1nnc(-c2ccc(NC(=O)Nc3ccccc3Cl)cc2)s1` [Example 280, 4-(5-(4-(3-(2-Chlorophenyl)ureido)phenyl)-1,3,4-thiadiazol-2-yl)butanoic acid]: the inhibition at 1 µM was above 50%.

`Cc1ccc(NC(=O)Nc2ccc(-c3nnc(CCCC(=O)O)s3)cc2)cc1` [Example 282, 4-(5-(4-(3-(p-Tolyl)ureido)phenyl)-1,3,4-thiadiazol-2-yl)butanoic acid]: the inhibition at 1 µM was above 50%.

Consider `O=C(O)CCCc1nnc(-c2ccc(NC(=O)Nc3ccc(F)cc3F)cc2)s1` [Example 284, 4-(5-(4-(3-(2,4-Difluorophenyl)ureido)phenyl)-1,3,4-thiadiazol-2-yl)butanoic acid], for which the inhibition at 1 µM was above 50%.

Turning to `O=C(O)CCCc1nnc(-c2ccc(NC(=O)Nc3ccc(Cl)cc3Oc3ccccc3)cc2)s1` [Example 286, 4-(5-(4-(3-(4-Chloro-2-phenoxyphenyl)ureido)phenyl)-1,3,4-thiadiazol-2-yl)butanoic acid], the inhibition at 1 µM was above 50%.

In the case of `CC(C)(C)c1ccc(C(=O)Nc2ccc(-c3nnc(CCCC(=O)O)s3)cc2)cc1` [Example 288, 4-(5-(4-(4-(tert-Butyl)benzamido)phenyl)-1,3,4-thiadiazol-2-yl)butanoic acid], the inhibition at 1 µM lay within 20 to 50%.

For the compound `O=C(O)CCCc1nnc(-c2ccc(NC(=O)c3ccc(OC(F)(F)F)cc3)cc2)s1` [Example 292, 4-(5-(4-(4-(Trifluoromethoxy)benzamido)phenyl)-1,3,4-thiadiazol-2-yl)butanoic acid], the inhibition at 1 µM is 20 to 50%.

As for `O=C(O)CCCc1nnc(-c2ccc(NC(=O)Nc3ccccc3Cl)cc2)o1` [Example 296, 4-(5-(4-(3-(2-Chlorophenyl)ureido)phenyl)-1,3,4-oxadiazol-2-yl)butanoic acid], the inhibition at 1 µM is 20 to 50%.

As to `O=C(O)CCCc1nnc(-c2ccc(NC(=O)Nc3ccc(F)cc3F)cc2)o1` [Example 300, 4-(5-(4-(3-(2,4-Difluorophenyl)ureido)phenyl)-1,3,4-oxadiazol-2-yl)butanoic acid], the inhibition at 1 µM was 20 to 50%.

Consider `O=C(O)CCCc1nnc(-c2ccc(NC(=O)Nc3cccc(C(F)(F)F)c3)cc2)o1` [Example 302, 4-(5-(4-(3-(3-(Trifluoromethyl)phenyl)ureido)phenyl)-1,3,4-oxadiazol-2-yl)butanoic acid], for which the inhibition at 1 µM was in the range of 20 to 50%.

Regarding `O=C(Nc1ccc(-c2ccn(C3CCC(C(=O)O)CC3)n2)cc1)Nc1cccc(C(F)(F)F)c1` (stereo not drawn) [Example 315, 4-(3-(4-(3-(3-(Trifluoromethyl)phenyl)ureido)phenyl)-1H-pyrazol-1-yl)cyclohexanecarboxylic acid], the inhibition at 1 µM is 20 to 50%.

On to `O=C(O)CCCc1nc(-c2ccc(NC(=O)Nc3ccc(Cl)cc3Oc3ccccc3)cc2)no1` [Example 322, 4-(3-(4-(3-(4-Chloro-2-phenoxyphenyl)ureido)phenyl)-1,2,4-oxadiazol-5-yl) butanoic acid], for which the inhibition at 1 µM was above 50%.

Take `O=C(O)CC1CCC(c2ncc(-c3ccc(NC(=O)Nc4ccccc4Cl)cc3)s2)CC1` (stereo not drawn) [Example 346, 2-(4-(5-(4-(3-(2-Chlorophenyl)ureido)phenyl)thiazol-2-yl)cyclohexyl)acetic acid]: the inhibition at 1 µM is above 50%.

Turning to `O=C(O)CC1CCC(c2ncc(-c3ccc(NC(=O)Nc4ccccc4F)cc3)s2)CC1` (stereo not drawn) [Example 348, 2-(4-(5-(4-(3-(2-Fluorophenyl)ureido)phenyl)thiazol-2-yl)cyclohexyl)acetic acid], the inhibition at 1 µM is above 50%.

Consider `O=C(O)CC1CCC(c2ncc(-c3ccc(NC(=O)Nc4cc(F)cc(F)c4)cc3)s2)CC1` (stereo not drawn) [Example 356, 2-(4-(5-(4-(3-(3,5-Difluorophenyl)ureido)phenyl)thiazol-2-yl)cyclohexyl)acetic acid], for which the inhibition at 1 µM was above 50%.

As to `O=C(O)CC1CCC(c2ncc(-c3ccc(NC(=O)Nc4cc(F)c(F)cc4F)cc3)s2)CC1` (stereo not drawn) [Example 358, 2-(4-(5-(4-(3-(2,4,5-Trifluorophenyl)ureido)phenyl)thiazol-2-yl)cyclohexyl)acetic acid], the inhibition at 1 µM is above 50%.

With `O=C(O)CC1CCC(c2ncc(-c3ccc(NC(=O)Nc4c(F)cc(F)cc4F)cc3)s2)CC1` (stereo not drawn) [Example 360, 2-(4-(5-(4-(3-(2,4,6-Trifluorophenyl)ureido)phenyl)thiazol-2-yl)cyclohexyl)acetic acid], the inhibition at 1 µM is above 50%.

For the compound `O=C(O)CC1CCC(c2ncc(-c3ccc(NC(=O)Nc4ccc(F)cc4F)cc3)s2)CC1` (stereo not drawn) [Example 362, 2-(4-(5-(4-(3-(2,4-Difluorophenyl)ureido)phenyl)thiazol-2-yl)cyclohexyl)acetic acid], the inhibition at 1 µM is above 50%.

In the case of `O=C(O)CC1CCC(c2ncc(-c3ccc(NC(=O)c4ccc(Cl)cc4Cl)cc3)s2)CC1` (stereo not drawn) [Example 364, 2-(4-(5-(4-(2,4-Dichlorobenzamido)phenyl)thiazol-2-yl)cyclohexyl)acetic acid], the inhibition at 1 µM is above 50%.

As to `O=C(O)CC1CCC(c2ncc(-c3ccc(NC(=O)c4c(F)cccc4C(F)(F)F)cc3)s2)CC1` (stereo not drawn) [Example 366, 2-(4-(5-(4-(2-Fluoro-6-(trifluoromethyl)benzamido)phenyl)thiazol-2-yl)cyclohexyl)acetic acid], the inhibition at 1 µM is above 50%.

Consider `O=C(O)CC1CCC(c2ncc(-c3ccc(NC(=O)Nc4cc(F)c(F)c(F)c4)cc3)s2)CC1` (stereo not drawn) [Example 368, 2-(4-(5-(4-(3-(3,4,5-Trifluorophenyl)ureido)phenyl)thiazol-2-yl)cyclohexyl)acetic acid], for which the inhibition at 1 µM is above 50%.
